Assays:
[1] = biological target: T1, PTPN2 (Homo sapiens, UniProt P17706); assay: HiBiT PTPN2 degradation in 293T.109 (HiBiT-PTPN2) cells, 24 hours; type: cell-based; conditions: 293T.109 cells
T1 construct: expressed in transfected cells; host or cells: 293T.109 (HiBiT-PTPN2), derived from 293T WT (ATCC)
T1 sequence (P17706 1-415): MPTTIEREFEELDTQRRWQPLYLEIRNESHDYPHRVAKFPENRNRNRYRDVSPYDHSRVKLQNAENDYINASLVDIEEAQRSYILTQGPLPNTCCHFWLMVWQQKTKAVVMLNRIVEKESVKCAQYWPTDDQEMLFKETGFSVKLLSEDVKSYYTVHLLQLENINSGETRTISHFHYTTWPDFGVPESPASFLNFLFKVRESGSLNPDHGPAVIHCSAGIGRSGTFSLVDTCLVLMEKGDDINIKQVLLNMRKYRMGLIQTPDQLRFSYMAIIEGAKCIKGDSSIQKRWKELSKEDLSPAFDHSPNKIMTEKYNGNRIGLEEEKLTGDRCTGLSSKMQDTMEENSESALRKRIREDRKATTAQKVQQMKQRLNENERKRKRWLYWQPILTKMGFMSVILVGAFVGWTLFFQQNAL
Text: Dulbecco's modified Eagle medium (DMEM) without phenol red and fetal bovine serum (FBS) were purchased from Gibco (Grand Island, NY, USA). Nano-Glo® HiBiT Lytic Assay System was purchased from Promega (Medison, WI, USA). 293T. 109 (HiBiT-PTPN2) cell line was generated by ectopically expressing PTPN2 with N-terminal HiBiT fusion tag in 293T WT cell line purchased from ATCC (Manassas, VA, USA). Cell culture flasks and 384-well microplates were acquired from VWR (Radnor, PA, USA).
PTPN2 Degradation Analysis
(§1) PTPN2 degradation was determined based on quantification of luminescent signal using Nano-Glo® HiBiT Lytic Assay kit. Test compounds were added to the 384-well plate from a top concentration of 10 μM with 11 points, half log titration in duplicates. 293T. 109 cells were added into 384-well plates at a cell density of 5000 cells per well. The plates were kept at 37° C. with 5% CO2 for 24 hours. The cells treated in the absence of the test compound were the negative control and the cells without Nano-Glo® HiBiT Lytic reagent were the positive control. After 24-hour incubation, Nano-Glo® HiBiT Lytic Assay reagents were added to the cells. Luminescence was acquired on EnVision™ Multilabel Reader (PerkinElmer, Santa Clara, CA, USA).

[2] = biological target: T2, PTPN2 (Mus musculus, UniProt Q06180); assay: HiBiT PTPN2 degradation in B16F10.4 cells, 24 hours; type: cell-based
T2 construct: HiBiT; host or cells: B16F10.4
T2 sequence (Q06180 1-406): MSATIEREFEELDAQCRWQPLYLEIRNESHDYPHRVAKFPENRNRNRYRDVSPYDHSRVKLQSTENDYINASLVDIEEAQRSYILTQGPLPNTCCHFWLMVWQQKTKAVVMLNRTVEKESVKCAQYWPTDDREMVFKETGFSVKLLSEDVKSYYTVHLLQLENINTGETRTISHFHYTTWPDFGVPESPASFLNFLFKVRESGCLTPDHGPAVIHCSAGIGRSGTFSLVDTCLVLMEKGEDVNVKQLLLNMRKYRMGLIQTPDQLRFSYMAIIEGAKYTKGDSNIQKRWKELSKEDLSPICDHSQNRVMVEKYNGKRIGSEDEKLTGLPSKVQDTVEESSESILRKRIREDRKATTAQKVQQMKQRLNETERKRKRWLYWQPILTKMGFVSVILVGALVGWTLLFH
Protocol: as §1

| DC50 [1] | DC50 [2] | SMILES |
| --- | --- | --- |
| 50 to 150 nM | 50 to 150 nM | C[C@@H](C(=O)Nc1ccc2c(F)c(N3CC(=O)NS3(=O)=O)c(O)cc2c1)N1CCC(c2ccc3c(c2)n(C)c(=O)n3C2CCC(=O)NC2=O)CC1 (single isomer, unassigned) [Degrader 104] |
| 50 to 150 nM | 150 to 500 nM | Cn1c(=O)n(C2CCC(=O)NC2=O)c2ccc([C@H]3CCN(CC(=O)Nc4ccc5c(F)c(N6CC(=O)NS6(=O)=O)c(O)cc5c4)C3)cc21 (single isomer, unassigned) [Degrader 123] |
| 150 to 500 nM | 150 to 500 nM | CCn1c(=O)n(C2CCC(=O)NC2=O)c2ccc([C@H]3CCN(CC(=O)Nc4ccc5c(F)c(N6CC(=O)NS6(=O)=O)c(O)cc5c4)C[C@@H]3F)cc21 (single isomer, unassigned) [Degrader 130] |
| < 50 nM | < 50 nM | Cc1nn(CC(=O)Nc2ccc3c(F)c(N4CC(=O)NS4(=O)=O)c(O)cc3c2)c(C)c1-c1ccc2c(C3CCC(=O)NC3=O)nn(C)c2c1 (stereo not drawn) [Degrader 1] |
| < 50 nM | 50 to 150 nM | Cn1c(=O)n(C2CCC(=O)NC2=O)c2ccc(C3CCN(CC4CC(C(=O)Nc5ccc6c(F)c(N7CC(=O)NS7(=O)=O)c(O)cc6c5)C4)CC3)cc21 (stereo not drawn) [Degrader 6] |
| < 50 nM | 150 to 500 nM | Cn1c(=O)n(C2CCC(=O)NC2=O)c2ccc(C3CCN(CCC(C)(C)CCOc4ccc5cc(O)c(N6CC(=O)NS6(=O)=O)c(F)c5c4)CC3)cc21 (stereo not drawn) [Degrader 7] |
| 50 to 150 nM | 50 to 150 nM | Cn1c(=O)n(C2CCC(=O)NC2=O)c2ccc(N3CCC(CCC(=O)Nc4ccc5c(F)c(N6CC(=O)NS6(=O)=O)c(O)cc5c4)CC3)cc21 (stereo not drawn) [Degrader 8] |
| 150 to 500 nM | 150 to 500 nM | O=C1CCC(n2c(=O)n(C3COC3)c3cc(C4CCN(CC(=O)Nc5ccc6c(F)c(N7CC(=O)NS7(=O)=O)c(O)cc6c5)CC4)ccc32)C(=O)N1 (stereo not drawn) [Degrader 9] |
| 50 to 150 nM | 150 to 500 nM | Cn1c(=O)n(C2CCC(=O)NC2=O)c2ccc(C3CCN(CC(=O)N4CCC(Oc5ccc6cc(O)c(N7CC(=O)NS7(=O)=O)c(F)c6c5)CC4)CC3(F)F)cc21 (stereo not drawn) [Degrader 10] |
| 50 to 150 nM | 150 to 500 nM | CCn1nc(C2CCC(=O)NC2=O)c2ccc(C3CCN(CC(=O)Nc4ccc5c(F)c(N6CC(=O)NS6(=O)=O)c(O)cc5c4)CC3(F)F)cc21 (stereo not drawn) [Degrader 11] |
| < 50 nM | 50 to 150 nM | CCn1nc(C2CCC(=O)NC2=O)c2ccc(C3CCN(CC(=O)N4CC(Oc5ccc6cc(O)c(N7CC(=O)NS7(=O)=O)c(F)c6c5)C4)CC3(F)F)cc21 (stereo not drawn) [Degrader 12] |
| 50 to 150 nM | 50 to 150 nM | CC(C)n1nc(C2CCC(=O)NC2=O)c2ccc(C3CCN(CC(=O)N4CC(Oc5ccc6cc(O)c(N7CC(=O)NS7(=O)=O)c(F)c6c5)C4)CC3(F)F)cc21 (stereo not drawn) [Degrader 13] |
| 50 to 150 nM | 150 to 500 nM | Cn1c(=O)n(C2CCC(=O)NC2=O)c2ccc(C3CCN(CC4CC4C(=O)N4CC(Oc5ccc6cc(O)c(N7CC(=O)NS7(=O)=O)c(F)c6c5)C4)CC3)cc21 (stereo not drawn) [Degrader 14] |
| 150 to 500 nM | ≥ 500 nM | Cn1c(=O)n(C2CCC(=O)NC2=O)c2ccc([C@@H]3CCN(CC(=O)N4CC(Oc5ccc6cc(O)c(N7CC(=O)NS7(=O)=O)c(F)c6c5)C4)C3)cc21 (stereo partly drawn) [Degrader 16] |
| 50 to 150 nM | 150 to 500 nM | Cn1c(=O)n(C2CCC(=O)NC2=O)c2ccc(C3CCN(CC4CC4C(=O)N4CC[C@H](c5ccc6cc(O)c(N7CC(=O)NS7(=O)=O)c(F)c6c5)C4)CC3)cc21 (stereo partly drawn) [Degrader 17] |
| 50 to 150 nM | 150 to 500 nM | Cn1c(=O)n(C2CCC(=O)NC2=O)c2ccc(C3CCN(CC4CC4C(=O)N4CC[C@@H](c5ccc6cc(O)c(N7CC(=O)NS7(=O)=O)c(F)c6c5)C4)CC3)cc21 (stereo partly drawn) [Degrader 18] |
| < 50 nM | 50 to 150 nM | Cn1c(=O)n(C2CCC(=O)NC2=O)c2ccc(N3CCC(CC(=O)Nc4ccc5c(F)c(N6CC(=O)NS6(=O)=O)c(O)cc5c4)CC3)cc21 (stereo not drawn) [Degrader 19] |
| 50 to 150 nM | 50 to 150 nM | Cn1c(=O)n([C@H]2CCC(=O)NC2=O)c2ccc(N3CCC(CC(=O)Nc4ccc5c(F)c(N6CC(=O)NS6(=O)=O)c(O)cc5c4)CC3)cc21 [Degrader 20] |

| DC50 [1] | DC50 [2] | SMILES |
| --- | --- | --- |
| 50 to 150 nM | 50 to 150 nM | Cn1c(=O)n([C@@H]2CCC(=O)NC2=O)c2ccc(N3CCC(CC(=O)Nc4ccc5c(F)c(N6CC(=O)NS6(=O)=O)c(O)cc5c4)CC3)cc21 [Degrader 21] |
| 50 to 150 nM | 50 to 150 nM | CCn1c(=O)n(C2CCC(=O)NC2=O)c2ccc(N3CCC(CC(=O)Nc4ccc5c(F)c(N6CC(=O)NS6(=O)=O)c(O)cc5c4)CC3)cc21 (stereo not drawn) [Degrader 22] |
| 150 to 500 nM | 150 to 500 nM | C[C@H]1CN(CC(=O)Nc2ccc3c(F)c(N4CC(=O)NS4(=O)=O)c(O)cc3c2)CCN1c1ccc2c(c1)n(C)c(=O)n2C1CCC(=O)NC1=O (stereo partly drawn) [Degrader 23] |
| 50 to 150 nM | 50 to 150 nM | C[C@@H]1CN(CC(=O)Nc2ccc3c(F)c(N4CC(=O)NS4(=O)=O)c(O)cc3c2)CCN1c1ccc2c(c1)n(C)c(=O)n2C1CCC(=O)NC1=O (stereo partly drawn) [Degrader 24] |
| < 50 nM | < 50 nM | Cn1c(=O)n(C2CCC(=O)NC2=O)c2ccc(-c3ccc(CC(=O)Nc4ccc5c(F)c(N6CC(=O)NS6(=O)=O)c(O)cc5c4)cc3)cc21 (stereo not drawn) [Degrader 25] |
| 50 to 150 nM | < 50 nM | Cn1c(=O)n([C@@H]2CCC(=O)NC2=O)c2ccc(-c3ccc(CC(=O)Nc4ccc5c(F)c(N6CC(=O)NS6(=O)=O)c(O)cc5c4)cc3)cc21 [Degrader 26] |
| 50 to 150 nM | < 50 nM | Cn1c(=O)n([C@H]2CCC(=O)NC2=O)c2ccc(-c3ccc(CC(=O)Nc4ccc5c(F)c(N6CC(=O)NS6(=O)=O)c(O)cc5c4)cc3)cc21 [Degrader 27] |
| 50 to 150 nM | < 50 nM | Cc1cc(CC(=O)Nc2ccc3c(F)c(N4CC(=O)NS4(=O)=O)c(O)cc3c2)ccc1-c1ccc2c(c1)n(C)c(=O)n2C1CCC(=O)NC1=O (stereo not drawn) [Degrader 28] |
| 50 to 150 nM | < 50 nM | Cn1c(=O)n(C2CCC(=O)NC2=O)c2ccc(-c3ccc4c(cnn4CC(=O)Nc4ccc5c(F)c(N6CC(=O)NS6(=O)=O)c(O)cc5c4)c3)cc21 (stereo not drawn) [Degrader 29] |
| < 50 nM | 150 to 500 nM | Cn1nc(C2CCC(=O)NC2=O)c2ccc(C3CCN(C4CC(C(=O)Nc5ccc6c(F)c(N7CC(=O)NS7(=O)=O)c(O)cc6c5)C4)CC3)cc21 (stereo not drawn) [Degrader 30] |
| 50 to 150 nM | 50 to 150 nM | Cn1c(=O)n(C2CCC(=O)NC2=O)c2ccc(-c3ccn(CC(=O)Nc4ccc5c(F)c(N6CC(=O)NS6(=O)=O)c(O)cc5c4)c(=O)c3)cc21 (stereo not drawn) [Degrader 32] |
| 50 to 150 nM | 50 to 150 nM | Cn1c(=O)n(C2CCC(=O)NC2=O)c2ccc(-c3ccc(CC(=O)Nc4ccc5c(F)c(N6CC(=O)NS6(=O)=O)c(O)cc5c4)c(F)c3)cc21 (stereo not drawn) [Degrader 33] |
| ≥ 500 nM | ≥ 500 nM | Cn1c(=O)n(C2CCC(=O)NC2=O)c2ccc(CC3CCN(C(=O)Nc4ccc5c(F)c(N6CC(=O)NS6(=O)=O)c(O)cc5c4)CC3)cc21 (stereo not drawn) [Degrader 34] |
| ≥ 500 nM | 150 to 500 nM | CC(C)n1c(=O)n(C2CCC(=O)NC2=O)c2ccc(N3CCC(CC(=O)Nc4ccc5c(F)c(N6CC(=O)NS6(=O)=O)c(O)cc5c4)CC3)cc21 (stereo not drawn) [Degrader 35] |
| < 50 nM | < 50 nM | Cn1c(=O)n(C2CCC(=O)NC2=O)c2ccc(C3CCN(CC(=O)Nc4ccc5c(F)c(N6CC(=O)NS6(=O)=O)c(O)cc5c4)CC3F)cc21 (stereo not drawn) [Degrader 36] |
| 50 to 150 nM | 50 to 150 nM | Cn1c(=O)n(C2CCC(=O)NC2=O)c2ccc([C@H]3CCN(CC(=O)Nc4ccc5c(F)c(N6CC(=O)NS6(=O)=O)c(O)cc5c4)C[C@@H]3F)cc21 (stereo partly drawn) [Degrader 37] |
| < 50 nM | < 50 nM | Cn1c(=O)n(C2CCC(=O)NC2=O)c2ccc([C@@H]3CCN(CC(=O)Nc4ccc5c(F)c(N6CC(=O)NS6(=O)=O)c(O)cc5c4)C[C@H]3F)cc21 (stereo partly drawn) [Degrader 38] |
| 50 to 150 nM | 150 to 500 nM | Cn1nc(C2CCC(=O)NC2=O)c2ccc(Oc3ccc(CC(=O)Nc4ccc5c(F)c(N6CC(=O)NS6(=O)=O)c(O)cc5c4)cc3)cc21 (stereo not drawn) [Degrader 39] |

Reference: patent publication US20240424111A1, “Degrader Compounds and Uses Thereof” (CALICO LIFE SCIENCES LLC, priority 2021, published 2024)
